Data: patent US8026243B2, “[4,5′]Bipyrimidinyl-6,4′-diamine derivatives as protein kinase inhibitors” (Novartis AG, priority 2006, dated 2011)

These compounds were tested against T1, Ba/F3-TEL-FGFR3 cells (Homo sapiens, UniProt P22607) (assay: FGFR3 cellular assay: proliferation of transformed Ba/F3-TEL-FGFR3 cells (AlamarBlue)). Conditions: 48 hours incubation, class symbols.
T1 construct: fused on or other part: The N-terminal oligomerising part of TEL (ETV6) is fused before the intracellular kinase part of FGFR3; P41212 (Transcription factor ETV6)
T1 sequence (P22607 whole entry, change not shown, the tested form may be a part): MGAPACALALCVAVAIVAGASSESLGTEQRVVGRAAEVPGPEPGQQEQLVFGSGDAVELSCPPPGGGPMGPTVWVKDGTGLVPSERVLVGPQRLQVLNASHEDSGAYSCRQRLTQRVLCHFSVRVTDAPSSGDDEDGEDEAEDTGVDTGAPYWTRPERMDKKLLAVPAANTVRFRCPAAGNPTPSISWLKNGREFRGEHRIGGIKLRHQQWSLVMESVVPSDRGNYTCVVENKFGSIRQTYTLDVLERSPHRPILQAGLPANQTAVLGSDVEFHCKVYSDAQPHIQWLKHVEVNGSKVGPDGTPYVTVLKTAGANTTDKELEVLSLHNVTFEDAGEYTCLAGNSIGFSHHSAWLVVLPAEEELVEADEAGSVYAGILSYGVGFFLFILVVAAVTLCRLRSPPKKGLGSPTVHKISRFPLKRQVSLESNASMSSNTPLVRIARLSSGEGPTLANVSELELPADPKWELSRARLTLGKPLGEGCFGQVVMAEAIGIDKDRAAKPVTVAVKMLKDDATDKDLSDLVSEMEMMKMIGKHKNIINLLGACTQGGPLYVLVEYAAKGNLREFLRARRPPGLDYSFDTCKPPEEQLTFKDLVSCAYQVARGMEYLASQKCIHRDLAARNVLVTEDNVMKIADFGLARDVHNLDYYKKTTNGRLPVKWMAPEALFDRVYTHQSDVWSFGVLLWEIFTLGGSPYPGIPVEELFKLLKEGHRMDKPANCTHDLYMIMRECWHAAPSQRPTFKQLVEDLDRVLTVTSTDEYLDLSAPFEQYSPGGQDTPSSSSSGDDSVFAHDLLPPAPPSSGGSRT
Type: cell-based
Method: Compounds of the invention are tested for their ability to inhibit transformed Ba/F3-TEL-FGFR3 cells proliferation, which is dependent on FGFR3 cellular kinase activity. Ba/F3-TEL-FGFR3 are cultured up to 800,000 cells/mL in suspension, with RPMI 1640 supplemented with 10% fetal bovine serum as the culture medium. Cells are dispensed into 384-well format plate at 5000 cell/well in […], culture medium. Compounds of the invention are dissolved and diluted in dimethylsulfoxide (DMSO). Twelve points 1:3 serial dilutions are made into DMSO to create concentrations gradient ranging typically from 10 mM to 0.05 μM. Cells are added with 50 nL of diluted compounds and incubated for 48 hours in cell culture incubator. AlamarBlue® (TREK Diagnostic Systems), which can be used to monitor the reducing environment created by proliferating cells, are added to cells at final concentration of 10%. After additional four hours of incubation in a 37° C. cell culture incubator, fluorescence signals from reduced AlamarBlue® (Excitation at 530 nm, Emission at 580 nm) are quantified on Analyst GT (Molecular Devices Corp.). IC50 values are calculated by linear regression analysis of the percentage inhibition of each compound at 12 concentrations.

SMILES | GI50 [nM]
COc1cc(OC)c(Cl)c(Nc2ncncc2-c2cc(NC(=O)NCCN3CCN(C)CC3)ncn2)c1Cl [Compound 8, 1-[4′-(2,6-Dichloro-3,5-dimethoxy-phenylamino)-[4,5′]bipyrimidinyl-6-yl]-3-[2-(4-methyl-piperazin-1-yl)-ethyl]-urea] | 100 to 250
CCN1CCN(c2ccc(Nc3cc(-c4cncnc4Nc4c(F)c(OC)cc(OC)c4Cl)ncn3)nc2)CC1 [Compound 43, N4′-(2-Chloro-6-fluoro-3,5-dimethoxy-phenyl)-N6-[5-(4-ethyl-piperazin-1-yl)-pyridin-2-yl]-[4,5′]bipyrimidinyl-6,4′-diamine] | < 100
CCNC(=O)c1cc(OC)c(Cl)c(Nc2ncncc2-c2cc(Nc3cc(CN4CCOCC4)ccn3)ncn2)c1Cl [Compound 33, 2,4-Dichloro-N-ethyl-5-methoxy-3-[6-(4-morpholin-4-ylmethyl-pyridin-2-ylamino)-[4,5′]bipyrimidinyl-4′-ylamino]-benzamide] | < 100
COC(=O)c1cc(OC)c(Cl)c(Nc2ncncc2-c2cc(N)ncn2)c1Cl [Compound 23, 3-(6-Amino-[4,5′]bipyrimidinyl-4′-ylamino)-2,4-dichloro-5-methoxy-benzoic acid methyl ester] | 250 to 500
COc1cc(C(=O)NC2CC2)c(Cl)c(Nc2ncncc2-c2cc(Nc3ccc(CN4CCOCC4)cn3)ncn2)c1Cl [Compound 57, 2,4-Dichloro-N-cyclopropyl-5-methoxy-3-[6-(5-morpholin-4-ylmethyl-pyridin-2-ylamino)-[4,5′]bipyrimidinyl-4′-ylamino]-benzamide] | < 100
COc1cc(OC)c(Cl)c(Nc2ncncc2-c2cc(NCCCCN(C)C)ncn2)c1Cl [Compound 13, N4′-(2,6-Dichloro-3,5-dimethoxy-phenyl)-N6-(4-dimethylamino-butyl)-[4,5′]bipyrimidinyl-6,4′-diamine] | 250 to 500
COc1cc(OC)c(Cl)c(Nc2ncncc2-c2cc(NC(=O)NCCN3CCOCC3)ncn2)c1Cl [Compound 9, 1-[4′-(2,6-Dichloro-3,5-dimethoxy-phenylamino)-[4,5′]bipyrimidinyl-6-yl]-3-(2-morpholin-4-yl-ethyl)-urea] | < 100
COc1cc(OC)c(Cl)c(Nc2ncncc2-c2cc(Nc3ccc(C(C)O)cn3)ncn2)c1F (centres unmarked) [Compound 79, 1-{6-[4′-(2-Chloro-6-fluoro-3,5-dimethoxy-phenylamino)-[4,5′]bipyrimidinyl-6-ylamino]-pyridin-3-yl}-ethanol] | < 100
COc1cc(OC)c(Br)c(Nc2ncncc2-c2cc(Nc3cc(CN4CCOCC4)ccn3)ncn2)c1Cl [Compound 51, N4′-(2-Bromo-6-chloro-3,5-dimethoxy-phenyl)-N6-(4-morpholin-4-ylmethyl-pyridin-2-yl)-[4,5′]bipyrimidinyl-6,4′-diamine] | < 100
COc1cc(OC)c(Cl)c(Nc2nccnc2-c2cc(Nc3ccc(CN4CCOCC4)cn3)ncn2)c1Cl [Compound 94, {6-[3-(2,6-Dichloro-3,5-dimethoxy-phenylamino)-pyrazin-2-yl]-pyrimidin-4-yl}-(5-morpholin-4-ylmethyl-pyridin-2-yl)-amine] | < 100
COc1cc(OC)c(Cl)c(Nc2ncncc2-c2cc(Nc3cc(CN4CCOCC4)ccn3)ncn2)c1F [Compound 46, N4′-(2-Chloro-6-fluoro-3,5-dimethoxy-phenyl)-N6-(4-morpholin-4-ylmethyl-pyridin-2-yl)-[4,5′]bipyrimidinyl-6,4′-diamine] | < 100
COc1cc(Nc2ncncc2-c2cc(Nc3ccc(CCN4CCOCC4)cn3)ncn2)c(F)c(OC)c1 [Compound 84, N4′-(2-Fluoro-3,5-dimethoxy-phenyl)-N6-[5-(2-morpholin-4-yl-ethyl)-pyridin-2-yl]-[4,5′]bipyrimidinyl-6,4′-diamine] | < 100
CCN(CC)CCOc1ccc(Nc2cc(-c3cncnc3Nc3c(Cl)c(OC)cc(OC)c3Cl)ncn2)cc1 [Compound 17, N4′-(2,6-Dichloro-3,5-dimethoxy-phenyl)-N6-[4-(2-diethylamino-ethoxy)-phenyl]-[4,5′]bipyrimidinyl-6,4′-diamine] | < 100

The next lines start with the values.

GI50 [nM] | SMILES
< 100 | CCN1CCN(Cc2ccc(Nc3cc(-c4cncnc4Nc4c(Cl)c(OC)cc(OC)c4Br)ncn3)nc2)CC1 [Compound 50, N4′-(2-Bromo-6-chloro-3,5-dimethoxy-phenyl)-N6-[5-(4-ethyl-piperazin-1-ylmethyl)-pyridin-2-yl]-[4,5′]bipyrimidinyl-6,4′-diamine]
< 100 | COc1cc(OC)c(Cl)c(Nc2ncncc2-c2cc(Nc3ccc(CN4CCN(C(=O)N(C)C)CC4)cn3)ncn2)c1Cl [Compound 19, 4-{6-[4′-(2,6-Dichloro-3,5-dimethoxy-phenylamino)-[4,5′]bipyrimidinyl-6-ylamino]-pyridin-3-ylmethyl}-piperazine-1-carboxylic acid dimethyl-amide]
< 100 | COc1cc(OC)c(Cl)c(Nc2ncncc2-c2cc(Nc3ccc(CN4CCN(CCO)CC4)cn3)ncn2)c1Cl [Compound 75, 2-(4-{6-[4′-(2,6-Dichloro-3,5-dimethoxy-phenylamino)-[4,5′]bipyrimidinyl-6-yl-amino]-pyridin-3-ylmethyl}-piperazin-1-yl)-ethanol]
< 100 | CNC(=O)N1CCN(Cc2ccc(Nc3cc(-c4cncnc4Nc4c(Cl)c(OC)cc(OC)c4Cl)ncn3)nc2)CC1 [Compound 20, 4-{6-[4′-(2,6-Dichloro-3,5-dimethoxy-phenylamino)-[4,5′]bipyrimidinyl-6-ylamino]-pyridin-3-ylmethyl}-piperazine-1-carboxylic acid methylamide]
< 100 | CCN1CCN(c2ccc(Nc3cc(-c4cncnc4Nc4c(Cl)c(OC)cc(OC)c4Cl)ncn3)nc2)CC1 [Compound 40, N4′-(2,6-Dichloro-3,5-dimethoxy-phenyl)-N6-[5-(4-ethyl-piperazin-1-yl)-pyridin-2-yl]-[4,5′]bipyrimidinyl-6,4′-diamine]
< 100 | COc1cc(OC)c(Br)c(Nc2ncncc2-c2cc(Nc3ccc(CN4CCOCC4)cn3)ncn2)c1Cl [Compound 49, N4′-(2-Bromo-6-chloro-3,5-dimethoxy-phenyl)-N6-(5-morpholin-4-ylmethyl-pyridin-2-yl)-[4,5′]bipyrimidinyl-6,4′-diamine]
250 to 500 | COc1cc(C(N)=O)c(Cl)c(Nc2ncncc2-c2cc(Nc3ccc(CN4CCOCC4)cn3)ncn2)c1Cl [Compound 26, 2,4-Dichloro-5-methoxy-3-[6-(5-morpholin-4-yl-methyl-pyridin-2-ylamino)-[4,5′]bipyrimidinyl-4′-ylamino]-benzamide]
< 100 | COc1cc(C(=O)NC2CC2)c(Cl)c(Nc2ncncc2-c2cc(Nc3ccc(CN4CCN(C(C)=O)CC4)cn3)ncn2)c1Cl [Compound 67, 3-{6-[5-(4-Acetyl-piperazin-1-ylmethyl)-pyridin-2-ylamino]-[4,5′]bipyrimidinyl-4′-ylamino}-2,4-dichloro-N-cyclopropyl-5-methoxy-benzamide]
< 100 | CCNC(=O)c1cc(OC)c(Cl)c(Nc2ncncc2-c2cc(Nc3ccc(CN4CCOCC4)cn3)ncn2)c1Cl [Compound 24, 2,4-Dichloro-N-ethyl-5-methoxy-3-[6-(5-morpholin-4-ylmethyl-pyridin-2-ylamino)-[4,5′]bipyrimidinyl-4′-ylamino]-benzamide]

Same assay, conditions: 48 hours incubation, given as bound

GI50 [nM] | SMILES
> 500 | COc1ccc(F)c(Nc2nccnc2-c2cc(N)ncn2)c1F [Compound 103, {6-[3-(2,6-Difluoro-3-methoxy-phenylamino)-pyrazin-2-yl]-pyrimidin-4-yl}-amine]
